Data on twelve compounds can be found in ChEMBL document CHEMBL1201862, “PubChem BioAssay data set” (2004).

Molecules are shown by their SMILES.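 Five concentrations, 48 hours, 96-well plates. GI50 = concentration required for 50% inhibition of growth.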 Active and inactive are the calls of the source. No stated cut-off is given here; in the data, active = GI50 up to about 1.1 µM and inactive = higher.

Some test systems named below: MCF7; UACC-62; PC-3; CAKI-1; OVCAR-5; SK-MEL-28; RPMI-8226; HOP-92; SK-OV-3; MOLT-4; SW-620; NCI-H460; UO-31; A498; ACHN; MDA-MB-231; HCC 2998; SR; HL-60; Hs-578T.
Assay in all cases: NCI-60 cell line screen, 48 h

In the case of `Nn1c(CCCCCCCCc2nnc(COc3c(O)ccc4ccccc34)n2N)nnc1COc1c(O)ccc2ccccc12`, the GI50 with MCF7 was > 100 µM (inactive); with UACC-62 it was > 100 µM (inactive); in the assay on PC-3 it was > 100 µM (inactive); in the assay on CAKI-1 it was 27.2 µM (inactive); in the assay with OVCAR-5 it was > 100 µM (inactive); with SK-MEL-28, > 100 µM (inactive). Further, the GI50 is 63.1 µM (inactive) in the assay with RPMI-8226; > 100 µM (inactive) in the assay with HOP-92; > 100 µM (inactive) in the assay with SK-OV-3; > 100 µM (inactive) in the assay with MOLT-4; > 100 µM (inactive) in the assay with SW-620; 57.9 µM (inactive) with NCI-H460. Besides, the GI50 with UO-31, with A498, with ACHN, in the assay on MDA-MB-231 and in the assay with HCC 2998 was > 100 µM (inactive) throughout.
For the compound `CC(C)Sc1nc(C#N)cc2c1CCCC2`, the GI50 in the assay on MCF7 is 39.4 µM (inactive); with UACC-62, 91.8 µM (inactive); in the assay on PC-3, 38.2 µM (inactive); in the assay with SR, 20.7 µM (inactive); with CAKI-1 it was > 100 µM (inactive); with OVCAR-5, > 100 µM (inactive). The GI50 in the assay with SK-MEL-28 was 29.7 µM (inactive); in the assay with RPMI-8226 it was 26.4 µM (inactive); in the assay with HOP-92 it was 33.5 µM (inactive); in the assay with SK-OV-3, 72.9 µM (inactive); with MOLT-4 it was 19.5 µM (inactive); in the assay on SW-620, 37.8 µM (inactive). Besides, the GI50 was 48.9 µM (inactive) with NCI-H460; 47.6 µM (inactive) with UO-31; 37.1 µM (inactive) in the assay on A498; 40.6 µM (inactive) with ACHN; 57.1 µM (inactive) with MDA-MB-231; 74.8 µM (inactive) in the assay with HCC 2998.
Consider `COC(CCC[N+](C)(C)C)CC[N+](C)(C)C` (stereo not given), for which the GI50 in the assay with MCF7, with UACC-62, with PC-3, in the assay on SR, in the assay with CAKI-1 and with OVCAR-5 was > 100 µM (inactive) each time. Further, the GI50 with SK-MEL-28, in the assay on RPMI-8226, in the assay with SK-OV-3, in the assay on MOLT-4, in the assay on HL-60 and in the assay on SW-620 was > 100 µM (inactive) each time. The GI50 in the assay on NCI-H460, with UO-31, with ACHN and with HCC 2998 was > 100 µM (inactive) throughout.
On to `CN(CCO)CCCC1COc2ccccc2O1` (stereo not given), for which the GI50 with MCF7, with UACC-62, in the assay on PC-3, with SR, in the assay with CAKI-1 and with OVCAR-5 was > 100 µM (inactive) throughout. Further, the GI50 in the assay on SK-MEL-28, in the assay on HOP-92, in the assay on SK-OV-3, with MOLT-4, with HL-60 and with SW-620 was > 100 µM (inactive) in each case. For the same compound, the GI50 in the assay with NCI-H460 is > 100 µM (inactive); in the assay with UO-31, > 100 µM (inactive); in the assay with ACHN, 63.8 µM (inactive); in the assay on HCC 2998, > 100 µM (inactive).
Turning to `Cc1cc2c(C)n(Cc3ccc(Cl)cc3Cl)nc2c(C#N)c1C`, the GI50 is > 100 µM (inactive) with UACC-62; > 100 µM (inactive) in the assay with SR; 41.8 µM (inactive) in the assay with CAKI-1; > 42.1 µM (inactive) in the assay with OVCAR-5; 36 µM (inactive) in the assay on SK-MEL-28; 99.3 µM (inactive) in the assay with RPMI-8226. The GI50 in the assay with HOP-92 was 13.6 µM (inactive); with SK-OV-3, 19.1 µM (inactive); in the assay with MOLT-4 it was > 100 µM (inactive); with HL-60, > 100 µM (inactive); in the assay with SW-620, > 100 µM (inactive); in the assay on NCI-H460, 35.9 µM (inactive). The GI50 in the assay on UO-31 is 52.8 µM (inactive); in the assay on A498, 65.8 µM (inactive); with ACHN, 49 µM (inactive); in the assay with HCC 2998, > 100 µM (inactive).
Turning to `CC(C)(C)C1CCC2c3c([nH]c4ccccc34)C3C(=O)N(c4cccc([N+](=O)[O-])c4)C(=O)C3C2C1` (stereo not given), the GI50 with MCF7 is 32.5 µM (inactive); in the assay on UACC-62 it was 23.4 µM (inactive); in the assay with PC-3, 27 µM (inactive); in the assay with SR it was 18.2 µM (inactive); in the assay on CAKI-1 it was 19.6 µM (inactive); with OVCAR-5 it was 52.2 µM (inactive). Further, the GI50 was 21 µM (inactive) with SK-MEL-28; 61.5 µM (inactive) in the assay with HOP-92; > 100 µM (inactive) in the assay on SK-OV-3; 6.84 µM (inactive) in the assay on MOLT-4; 57.8 µM (inactive) in the assay on SW-620; 13.6 µM (inactive) with NCI-H460. For the same compound, the GI50 in the assay with UO-31 was 35.2 µM (inactive); in the assay on A498 it was 41.2 µM (inactive); with ACHN it was 36.2 µM (inactive); with MDA-MB-231, 30.5 µM (inactive); in the assay on HCC 2998, 27.7 µM (inactive).
Regarding `COC(=O)c1cc(C(=O)OC)c(CC(=O)C(=O)NC2C3CC4CC(C3)CC2C4)nc1CC(=O)C(=O)NC1C2CC3CC(C2)CC1C3` (stereo not given), the GI50 was > 100 µM (inactive) with UACC-62; 8.69 µM (inactive) in the assay on SR; > 100 µM (inactive) in the assay with CAKI-1; > 100 µM (inactive) in the assay with OVCAR-5; > 100 µM (inactive) with SK-MEL-28; > 100 µM (inactive) in the assay on RPMI-8226. Besides, the GI50 with HOP-92 was 74.6 µM (inactive); with SK-OV-3, > 100 µM (inactive); in the assay with MOLT-4, 37.3 µM (inactive); with HL-60, > 100 µM (inactive); in the assay with SW-620 it was > 100 µM (inactive); with NCI-H460, > 100 µM (inactive). In addition, the GI50 in the assay on UO-31, in the assay on A498, in the assay with ACHN and in the assay on HCC 2998 was > 100 µM (inactive) in each case.
Take `Cc1csc2nc(-c3ccncc3)cn12`: the GI50 in the assay with UACC-62 is > 100 µM (inactive); with SR, 24.3 µM (inactive); in the assay with CAKI-1 it was > 100 µM (inactive); in the assay with OVCAR-5 it was > 100 µM (inactive); with SK-MEL-28, > 100 µM (inactive); in the assay with RPMI-8226 it was > 45.1 µM (inactive). In addition, the GI50 with HOP-92 was > 100 µM (inactive); in the assay on SK-OV-3 it was > 100 µM (inactive); in the assay on MOLT-4, > 100 µM (inactive); in the assay on HL-60, > 36.3 µM (inactive); in the assay on SW-620 it was > 21.1 µM (inactive); in the assay on NCI-H460, > 43.5 µM (inactive). Further, the GI50 in the assay on UO-31, in the assay with A498, in the assay with ACHN and in the assay with HCC 2998 was > 100 µM (inactive) in each case.
In the case of `COc1c(Br)cc(/C=C(\C#N)c2cccnc2)cc1Br`, the GI50 is 35.8 µM (inactive) in the assay with MCF7; > 100 µM (inactive) in the assay on UACC-62; 45.4 µM (inactive) with PC-3; 29.5 µM (inactive) in the assay on SR; > 100 µM (inactive) with CAKI-1; 30.3 µM (inactive) in the assay on OVCAR-5. Moreover, the GI50 was 50.5 µM (inactive) in the assay with SK-MEL-28; > 100 µM (inactive) in the assay on RPMI-8226; 23.1 µM (inactive) in the assay on HOP-92; 56.9 µM (inactive) in the assay on SK-OV-3; 49.1 µM (inactive) with MOLT-4; 36.2 µM (inactive) with HL-60. Moreover, the GI50 in the assay with SW-620 was 38.7 µM (inactive); in the assay with NCI-H460 it was 37.8 µM (inactive); in the assay with UO-31 it was > 100 µM (inactive); in the assay on ACHN, 93.3 µM (inactive); in the assay on HCC 2998 it was 48 µM (inactive).
On to `O=C(Nc1ccc(Br)cc1)C(=O)C(C(=O)c1ccc(Cl)c(Cl)c1)C1OC(=O)c2ccccc21` (stereo not given), for which the GI50 with UACC-62 is 13.4 µM (inactive); in the assay with SR, 17.3 µM (inactive); in the assay on CAKI-1, 14.4 µM (inactive); in the assay with OVCAR-5, 17.3 µM (inactive); with SK-MEL-28, 13.7 µM (inactive); in the assay with RPMI-8226, 39.7 µM (inactive). The GI50 in the assay on HOP-92 was 15 µM (inactive); in the assay with SK-OV-3 it was 35.1 µM (inactive); in the assay with MOLT-4, 10.4 µM (inactive); in the assay with HL-60, 17.2 µM (inactive); in the assay on SW-620, 14 µM (inactive); in the assay on NCI-H460, 15.1 µM (inactive). Further, the GI50 is 18.5 µM (inactive) in the assay with UO-31, 16.2 µM (inactive) with A498, 16.3 µM (inactive) in the assay with ACHN and 14.6 µM (inactive) in the assay with HCC 2998.
As for `O=C1/C(=C/c2ccco2)N=C(c2ccccc2)N1c1ccc(S(=O)(=O)Nc2nccs2)cc1`, the GI50 with MCF7 was 61.4 µM (inactive); in the assay with UACC-62, 93.5 µM (inactive); in the assay on PC-3, 86.3 µM (inactive); with SR it was > 100 µM (inactive); in the assay with CAKI-1, > 100 µM (inactive); in the assay with OVCAR-5, > 100 µM (inactive). The GI50 in the assay on RPMI-8226 is 41.7 µM (inactive); with HOP-92, 73.8 µM (inactive); with SK-OV-3, > 100 µM (inactive); in the assay with MOLT-4 it was 43.4 µM (inactive); in the assay on HL-60, 89.9 µM (inactive); with SW-620, > 100 µM (inactive). Further, the GI50 with NCI-H460 is 45.9 µM (inactive); with UO-31 it was 57.1 µM (inactive); in the assay on ACHN it was 74.6 µM (inactive); in the assay with MDA-MB-231, > 100 µM (inactive); in the assay with HCC 2998, > 100 µM (inactive).
On to `Cc1noc(NC(=O)Nc2ccccc2F)c1C#N`, for which the GI50 in the assay on Hs-578T was > 34.4 µM (inactive); in the assay with UACC-62 it was > 27.4 µM (inactive); in the assay with PC-3, > 21.5 µM (inactive); in the assay with SR it was 21.4 µM (inactive); in the assay on CAKI-1, > 100 µM (inactive); in the assay on OVCAR-5, > 28.4 µM (inactive). The GI50 is > 100 µM (inactive) in the assay with SK-MEL-28; > 74.8 µM (inactive) with RPMI-8226; > 100 µM (inactive) in the assay with HOP-92; > 100 µM (inactive) in the assay on SK-OV-3; 48.9 µM (inactive) in the assay on MOLT-4; 84.5 µM (inactive) in the assay on HL-60. Besides, the GI50 in the assay with SW-620 is > 100 µM (inactive); in the assay with NCI-H460, 6.55 µM (inactive); with UO-31 it was 0.918 µM (active); in the assay on A498, > 35 µM (inactive); in the assay on ACHN it was 22.2 µM (inactive); in the assay with HCC 2998, 2.12 µM (inactive).
